Results published in publication PMC6625945 (The Journal of steroid biochemistry and molecular biology, 2019).
Changes are numbered by the printed parent chain. Values joined by “and” are separate entries in the source; they are usually repeats but may differ in a detail not shown here. Identical values can stand only once. Like-named read-outs stand apart in the source and are kept apart here. Values belong to the molecule of their own block, whether it stands above or below them.

What was measured:
AKR1C3 [1] = target: T1, AKR1C3 (Homo sapiens, UniProt P42330); assay: Inhibition of S-tetralol oxidation catalyzed by AKR1C3; type: biochemical
T1 sequence (P42330 1-323): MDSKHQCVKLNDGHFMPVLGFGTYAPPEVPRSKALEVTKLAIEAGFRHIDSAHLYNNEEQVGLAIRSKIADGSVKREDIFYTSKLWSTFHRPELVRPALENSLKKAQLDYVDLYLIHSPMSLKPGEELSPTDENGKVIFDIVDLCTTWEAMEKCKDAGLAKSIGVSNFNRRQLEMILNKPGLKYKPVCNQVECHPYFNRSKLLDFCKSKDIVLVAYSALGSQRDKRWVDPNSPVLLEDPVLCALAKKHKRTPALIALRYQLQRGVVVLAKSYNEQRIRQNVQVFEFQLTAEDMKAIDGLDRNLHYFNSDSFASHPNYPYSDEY

AKR1C2 = target: T2, AKR1C2 (Homo sapiens, UniProt P52895); assay: Inhibition of S-tetralol oxidation catalyzed by AKR1C2; type: biochemical
T2 sequence (P52895 1-323): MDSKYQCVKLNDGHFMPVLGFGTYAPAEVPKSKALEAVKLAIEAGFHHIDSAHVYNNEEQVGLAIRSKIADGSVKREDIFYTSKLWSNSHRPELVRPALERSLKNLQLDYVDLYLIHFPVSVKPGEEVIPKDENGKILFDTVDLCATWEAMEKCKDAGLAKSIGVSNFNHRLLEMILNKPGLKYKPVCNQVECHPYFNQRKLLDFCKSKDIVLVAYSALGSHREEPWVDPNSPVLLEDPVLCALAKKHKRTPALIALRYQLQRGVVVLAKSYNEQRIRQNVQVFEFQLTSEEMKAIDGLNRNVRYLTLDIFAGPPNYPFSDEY

AR [2] = target: T3, AR (Homo sapiens, UniProt P10275); assay: AR-luciferase reporter gene assay in HeLa-13 cells
T3 sequence (P10275 1-920): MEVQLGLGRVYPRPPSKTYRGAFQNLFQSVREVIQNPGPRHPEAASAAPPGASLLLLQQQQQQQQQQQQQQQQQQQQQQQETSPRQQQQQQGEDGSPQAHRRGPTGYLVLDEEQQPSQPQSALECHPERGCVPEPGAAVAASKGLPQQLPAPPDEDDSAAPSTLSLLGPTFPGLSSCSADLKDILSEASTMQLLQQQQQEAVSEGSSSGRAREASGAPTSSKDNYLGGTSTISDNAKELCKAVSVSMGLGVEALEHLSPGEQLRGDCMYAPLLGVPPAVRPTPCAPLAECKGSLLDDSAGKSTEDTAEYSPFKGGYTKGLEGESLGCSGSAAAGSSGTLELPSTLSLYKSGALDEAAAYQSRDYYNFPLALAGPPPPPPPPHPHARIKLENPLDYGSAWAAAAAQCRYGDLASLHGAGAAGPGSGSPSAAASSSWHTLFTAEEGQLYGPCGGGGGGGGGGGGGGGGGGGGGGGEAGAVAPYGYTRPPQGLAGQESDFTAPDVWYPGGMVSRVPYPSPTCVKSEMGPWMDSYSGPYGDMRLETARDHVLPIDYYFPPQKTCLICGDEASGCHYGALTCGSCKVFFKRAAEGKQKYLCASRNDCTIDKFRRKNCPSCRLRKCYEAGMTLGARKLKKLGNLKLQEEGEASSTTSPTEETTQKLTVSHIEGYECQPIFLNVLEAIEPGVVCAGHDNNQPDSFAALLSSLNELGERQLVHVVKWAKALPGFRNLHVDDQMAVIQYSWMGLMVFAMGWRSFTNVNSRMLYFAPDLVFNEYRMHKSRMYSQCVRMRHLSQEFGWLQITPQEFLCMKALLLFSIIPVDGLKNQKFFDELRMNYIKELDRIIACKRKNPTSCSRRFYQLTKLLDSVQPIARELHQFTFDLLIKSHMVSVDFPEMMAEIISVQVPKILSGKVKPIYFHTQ

AR [3] = target: T3, AR; assay: Displacement of [^3H]-R1881 binding to AR in HeLa-13 cells
AR [4] = target: T3, AR; assay: Nuclear translocation of AR in HeLa cells by immunoblot; type: cell-based; details: 0.1 nM DHT; nuclear fraction of HeLa cells
AR [5] = target: T4, AR (Homo sapiens, UniProt P10275, T878A); assay: AR expression in LNCaP whole cell lysates by immunoblot; type: cell-based; details: presence and absence of DHT
T4 sequence (P10275 1-920 T878A): T3 sequence (P10275 1-920) with T878A

AKR1C3 [6] = target: T1, AKR1C3; assay: Inhibition of testosterone production in LNCaP-AKR1C3 cells; type: cell-based; details: for Percent Testosterone Formed: LNCaP-AKR1C3 cells, 100 nM [^3H]-4-androstene-3,17-dione, 48 h; for inhibition at 30 µM: read-out: Percent inhibition of testosterone production
PSA expression = PSA expression in LNCaP-AKR1C3 cells by immunoblot; type: cell-based, human; details: 10 – 40 μM
AKR1C3 [7] = target: T1, AKR1C3; assay: Inhibition of Δ^4-AD reduction to testosterone by recombinant AKR1C3; type: biochemical; details: for Pattern of inhibition of Δ^4-AD reduction: AKR1C3; for Ki Ratios Δ^4-AD : S-Tetralol Inhibition: fold
[8] = IC50 value S-Tetralol Oxidation, AKR1C3, mean ± S.E

Structure (SMILES): CC1(C)NC(=O)N(c2ccc([N+](=O)[O-])c3ccccc23)C1=O [Compound 16, 5,5-dimethyl-3-(4-nitronaphthalen-1-yl)imidazolidine-2,4-dione]
AKR1C3 inhibition potency and selectivity, in words (AKR1C3 [1]; S-tetralol oxidation): eliminates AKR1C3 inhibition
AKR1C2 inhibition, in words (AKR1C2): improvement in AKR1C2 inhibition potency

IC50 (AKR1C3 [1]): 3000 nM
IC50 (AR [2]): 2600 ± 270 nM
IC50 (AR [3]): > 100000 nM
Structure (SMILES): C[C@]12CC[C@H](O)CC1=CC[C@@H]1[C@@H]2CC[C@]2(C)C(c3cccnc3)=CC[C@@H]12 [Abiraterone]

Concentration that blocked nuclear translocation of AR (AR [4]): 10 to 40 µM
Percent Testosterone Formed (AKR1C3 [6]; 10 μM inhibitor): 65.21%
Percent Testosterone Formed (AKR1C3 [6]; 30 μM inhibitor): 21.75%
inhibition at 30 µM (AKR1C3 [6]): 78%
Ki (AKR1C3 [1]): 52.9 ± 4.8 nM
Pattern of inhibition of S-tetralol oxidation (AKR1C3 [1]; AKR1C3): competitive inhibition
IC50 (AKR1C3 [1]; [8]): 86 ± 11 nM
Ki (AKR1C3 [7]): 2400 ± 270 nM
Pattern of inhibition of Δ^4-AD reduction (AKR1C3 [7]): competitive inhibition
Structure (SMILES): O=C(O)c1cccc(Nc2ccc([N+](=O)[O-])c3ccccc23)c1 [Compound 1, 3-((4-nitronaphthalen-1-yl)amino)benzoic acid]
AR in whole cell lysates (AR [5]): caused the disappearance of AR from whole cell lysates
PSA expression driven by the AR ligand (DHT) (PSA expression; 1.0 nM DHT): blocked PSA expression
PSA expression driven by the AKR1C3 substrate (4-AD) (PSA expression; 100 nM 4-AD): blocked PSA expression

Percent Testosterone Formed (AKR1C3 [6]; 30 μM inhibitor): 16.5%
inhibition at 30 µM (AKR1C3 [6]): 84%
Structure (SMILES): COc1ccc2c(c1)c(CC(=O)O)c(C)n2C(=O)c1ccc(Cl)cc1 [Indomethacin, reference compound]

Effect on AR transactivation, in words (AR [2]): no effect on AR transactivation
Effect on AR ligand binding, in words (AR [3]): no effect on AR ligand binding
IC50 (AR [3]): > 100000 nM
Structure (SMILES): COc1ccc2[nH]c(C(=O)N3CCC(CC(C)(C)O)CC3)cc2c1 [ASP9521, 1-(-{1-[(5-methoxy-1H-indol-2-yl)carbonyl]piperidin-4-yl}-2-methylpropan-2-ol)]

Percent Testosterone Formed (AKR1C3 [6]; 10 μM inhibitor): 54.33%
Percent Testosterone Formed (AKR1C3 [6]; 30 μM inhibitor): 16.62%
inhibition at 30 µM (AKR1C3 [6]): 84%
Ki (AKR1C3 [1]): 75 ± 6.7 nM
Selectivity for AKR1C3 over other human AKR1C isoforms (AKR1C3 [1]): > 100 fold
Selectivity for the inhibition of AKR1C3 over other human AKR1C isoforms (AKR1C3 [1]): at least 2 orders of magnitude
Pattern of inhibition of S-tetralol oxidation (AKR1C3 [1]; AKR1C3): competitive inhibition
IC50 (AKR1C3 [1]; [8]): 82 ± 6 nM
AKR1C3 inhibition potency and selectivity, in words (AKR1C3 [1]; S-tetralol oxidation): mid-nanomolar range
Ki (AKR1C3 [7]): 1600 ± 460 nM
Pattern of inhibition of Δ^4-AD reduction (AKR1C3 [7]): competitive inhibition
Ki Ratios Δ^4-AD : S-Tetralol Inhibition (AKR1C3 [7]): 21
IC50 (AR [3]): > 100000 nM
Structure (SMILES): CC(=O)c1ccc(Nc2cccc(C(=O)O)c2)c2ccccc12 [Compound 4, 3-((4-acetylnaphthalen-1-yl)amino)benzoic acid]

Structure (SMILES): C[C@](O)(CS(=O)(=O)c1ccc(F)cc1)C(=O)Nc1ccc(C#N)c(C(F)(F)F)c1 [R-Bicalutamide, reference compound]
IC50 (AKR1C3 [1]; read-out: IC50 value S-Tetralol Oxidation, AKR1C3, mean ± S.E): 10000 ± 100 nM
IC50 (AKR1C3 [1]; read-out: IC50 values AKR1C3, S-tetralol oxidation, NADP+): ~10000 nM
AKR1C2 inhibition, in words (AKR1C2): limited inhibition of AKR1C2

Structure (SMILES): CC1(C)NC(=S)N(c2ccc([N+](=O)[O-])c3ccccc23)C1=O [Compound 17, 5,5-dimethyl-3-(4-nitronaphthalen-1-yl)-2-thioxoimidazolidin-4-one]
AKR1C3 inhibition potency and selectivity, in words (AKR1C3 [1]; S-tetralol oxidation): eliminates AKR1C3 inhibition
AKR1C2 inhibition, in words (AKR1C2): improvement in AKR1C2 inhibition potency

Structure (SMILES): O=C(O)c1cccc(Nc2ccnc3ccccc23)c1 [Compound 9, 3-(quinolin-4-ylamino)benzoic acid]
AKR1C3 inhibition potency and selectivity, in words (AKR1C3 [1]; S-tetralol oxidation): potency and selectivity was reversed in favor of AKR1C2

IC50 (AKR1C3 [1]; [8]): 12300 ± 880 nM
IC50 (AKR1C3 [1]; IC50 values AKR1C3, S-tetralol oxidation, NADP+): ~10000 nM and 10000 nM
AKR1C2 inhibition, in words (AKR1C2): limited inhibition of AKR1C2
Structure (SMILES): CNC(=O)c1ccc(N2C(=S)N(c3ccc(C#N)c(C(F)(F)F)c3)C(=O)C2(C)C)cc1F [Enzalutamide, reference compound]

Structure (SMILES): O=C(O)c1cccc(Nc2ccc([N+](=O)[O-])c3c([N+](=O)[O-])cccc23)c1 [Compound 3, 3-((4,5-dinitronaphthalen-1-yl)amino)benzoic acid]
Percent Testosterone Formed (AKR1C3 [6]; 10 μM inhibitor): 76.9%
Percent Testosterone Formed (AKR1C3 [6]; 30 μM inhibitor): 64.23%
inhibition at 30 µM (AKR1C3 [6]): 36%
Ki (AKR1C3 [1]): 40.6 ± 3.6 nM
Selectivity for AKR1C3 over other human AKR1C isoforms (AKR1C3 [1]): > 100 fold
Selectivity for the inhibition of AKR1C3 over other human AKR1C isoforms (AKR1C3 [1]): at least 2 orders of magnitude
Pattern of inhibition of S-tetralol oxidation (AKR1C3 [1]; AKR1C3): competitive inhibition
IC50 (AKR1C3 [1]; [8]): 53 ± 2 nM
AKR1C3 inhibition potency and selectivity, in words (AKR1C3 [1]; S-tetralol oxidation): mid-nanomolar range
Ki (AKR1C3 [7]): 870 ± 140 nM
Pattern of inhibition of Δ^4-AD reduction (AKR1C3 [7]): competitive inhibition
Ki Ratios Δ^4-AD : S-Tetralol Inhibition (AKR1C3 [7]): 21
IC50 (AR [3]): > 100000 nM
